According to ChEMBL document CHEMBL1201861, “Genomics of Drug Sensitity in Cancer screening data, Wellcome Trust Sanger Institute”:

What was measured:
Assay in all cases: cells
MMAC-SF = type: functional, cell-based, Homo sapiens; conditions: Homo sapiens, MMAC-SF;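 also: growth inhibition of human MMAC-SF cells, read out with a cell viability assay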
Description: SANGER: Inhibition of human MMAC-SF cell growth in a cell viability assay.

BHY = type: functional, cell-based, Homo sapiens; conditions: Homo sapiens, BHY;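 also: cell growth inhibition read out by a viability assay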
GCT = type: functional, cell-based, Homo sapiens; conditions: Homo sapiens, GCT;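 also: GCT cell line proliferation inhibition, read out with a cell viability assay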
Description: SANGER: Inhibition of human GCT cell growth in a cell viability assay.

NCI-H2122 = type: functional, cell-based, Homo sapiens; conditions: Homo sapiens, NCI-H2122;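 also: growth inhibition of the cells, read out with a cell viability assay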
Description: SANGER: Inhibition of human NCI-H2122 cell growth in a cell viability assay.

P12-Ichikawa = type: functional, cell-based; conditions: Homo sapiens
A101D = type: functional, cell-based, Homo sapiens; conditions: Homo sapiens, A101D;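 also: growth inhibition of the cell line, measured with a viability assay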
Description: SANGER: Inhibition of human A101D cell growth in a cell viability assay.

KOSC-2 = type: functional, cell-based, Homo sapiens; conditions: Homo sapiens, KOSC-2;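 also: growth inhibition of KOSC-2 cells, read out by a cell viability assay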
RPMI-8866 = type: functional, cell-based; conditions: Homo sapiens
Description: SANGER: Inhibition of human RPMI-8866 cell growth in a cell viability assay.

KYSE-180 = type: functional, cell-based, Homo sapiens; conditions: Homo sapiens, KYSE-180;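 also: growth inhibition of KYSE-180 cells, read out with a cell viability assay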
Description: SANGER: Inhibition of human KYSE-180 cell growth in a cell viability assay.

NUGC-3 = type: functional, cell-based, Homo sapiens; conditions: Homo sapiens, NUGC-3;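 also: growth inhibition of human NUGC-3 cells, read out with a cell viability assay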
Description: SANGER: Inhibition of human NUGC-3 cell growth in a cell viability assay.

SAOS-2 = type: functional, cell-based, Homo sapiens; conditions: Homo sapiens, SAOS-2;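 also: growth inhibition of human Saos-2 cells determined by a cell viability assay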
Description: SANGER: Inhibition of human Saos-2 cell growth in a cell viability assay.

NCI-H1355 = type: functional, cell-based, Homo sapiens; conditions: Homo sapiens, NCI-H1355;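 also: growth inhibition of human NCI-H1355 cells, read out by a cell viability assay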
Description: SANGER: Inhibition of human NCI-H1355 cell growth in a cell viability assay.

A498 = type: functional, cell-based, Homo sapiens; conditions: Homo sapiens, A498;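 also: growth inhibition of human A498 cells, read out with a cell viability assay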
Description: SANGER: Inhibition of human A498 cell growth in a cell viability assay.

UACC-62 = type: functional, cell-based, Homo sapiens; conditions: Homo sapiens, UACC-62;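 also: growth inhibition of human UACC-62 cells, read out by a cell viability assay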
Description: SANGER: Inhibition of human UACC-62 cell growth in a cell viability assay.

GT3TKB = type: functional, cell-based, Homo sapiens; conditions: Homo sapiens, GT3TKB;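 also: growth inhibition of the cell line, read out with a cell viability assay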
Description: SANGER: Inhibition of human GT3TKB cell growth in a cell viability assay.

SAS = type: functional, cell-based, Homo sapiens; conditions: Homo sapiens, SAS;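 also: growth inhibition of SAS cells, read out with a cell viability assay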
MDA-MB-453 = type: functional, cell-based, Homo sapiens; conditions: Homo sapiens, MDA-MB-453
Description: SANGER: Inhibition of human MDA-MB-453 cell growth in a cell viability assay.

NCI-H1304 = type: functional, cell-based; conditions: Homo sapiens;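 also: growth inhibition of the cancer cell line, measured in a cell viability assay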
Description: SANGER: Inhibition of human NCI-H1304 cell growth in a cell viability assay.

VA-ES-BJ = type: functional, cell-based, Homo sapiens; conditions: Homo sapiens, VA-ES-BJ;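 also: growth inhibition of the VA-ES-BJ cell line, read out by a cell viability assay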
Description: SANGER: Inhibition of human VA-ES-BJ cell growth in a cell viability assay.

SK-UT-1 = type: functional, cell-based, Homo sapiens; conditions: Homo sapiens, SK-UT-1;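 also: growth inhibition of SK-UT-1 cells, measured by a cell viability assay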
Description: SANGER: Inhibition of human SK-UT-1 cell growth in a cell viability assay.

M14 = type: functional, cell-based, Homo sapiens; conditions: Homo sapiens, M14;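 also: growth inhibition of M14 cells, read out with a cell viability assay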
Description: SANGER: Inhibition of human M14 cell growth in a cell viability assay.

Huh-7 = type: functional, cell-based, Homo sapiens; conditions: Homo sapiens, Huh-7;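 also: HuH-7 cell growth inhibition, read out with a cell viability assay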
Description: SANGER: Inhibition of human HuH-7 cell growth in a cell viability assay.

SK-OV-3 = type: functional, cell-based, Homo sapiens; conditions: Homo sapiens, SK-OV-3;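 also: growth inhibition of SK-OV-3 human cells, read out with a cell viability assay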
Description: SANGER: Inhibition of human SK-OV-3 cell growth in a cell viability assay.

CAKI-1 = type: functional, cell-based, Homo sapiens; conditions: Homo sapiens, CAKI-1;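 also: growth inhibition of CAKI-1 cells, measured by a cell viability assay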
Description: SANGER: Inhibition of human CAKI-1 cell growth in a cell viability assay.

IST-SL1 = type: functional, cell-based, Homo sapiens; conditions: Homo sapiens, IST-SL1;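 also: growth inhibition of human IST-SL1 cells, read out with a cell viability assay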
Description: SANGER: Inhibition of human IST-SL1 cell growth in a cell viability assay.

OAW-28 = type: functional, cell-based, Homo sapiens; conditions: Homo sapiens, OAW-28;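 also: growth inhibition of OAW-28 cells, read out with a cell viability assay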
Description: SANGER: Inhibition of human OAW-28 cell growth in a cell viability assay.

MHH-ES-1 = type: functional, cell-based, Homo sapiens; conditions: Homo sapiens, MHH-ES-1;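 also: cell growth inhibition measured by a cell viability assay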
Description: SANGER: Inhibition of human MHH-ES-1 cell growth in a cell viability assay.

DEL = type: functional, cell-based; conditions: Homo sapiens;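 also: growth inhibition of the human DEL cell line, read out with a cell viability assay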
Description: SANGER: Inhibition of human DEL cell growth in a cell viability assay.

HCC1806 = type: functional, cell-based, Homo sapiens; conditions: Homo sapiens, HCC1806;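 also: growth inhibition of the cancer cell line, determined with a cell viability assay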
Description: SANGER: Inhibition of human HCC1806 cell growth in a cell viability assay.

MFM-223 = type: functional, cell-based, Homo sapiens; conditions: Homo sapiens, MFM-223
Description: SANGER: Inhibition of human MFM-223 cell growth in a cell viability assay.

SW756 = type: functional, cell-based, Homo sapiens; conditions: Homo sapiens, SW756;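 also: growth inhibition of human SW756 cells, read out with a cell viability assay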
Description: SANGER: Inhibition of human SW756 cell growth in a cell viability assay.

KALS-1 = type: functional, cell-based, Homo sapiens; conditions: Homo sapiens, KALS-1;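 also: growth inhibition of KALS-1 cells, determined with a cell viability assay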
RS4-11 = type: functional, cell-based; conditions: Homo sapiens;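 also: growth inhibition of RS4-11 cells, read out by a cell viability assay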
Description: SANGER: Inhibition of human RS4-11 cell growth in a cell viability assay.

COR-L23 = type: functional, cell-based, Homo sapiens; conditions: Homo sapiens, COR-L23;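 also: cell viability assay measuring how strongly compounds suppress growth of COR-L23 cells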
Description: SANGER: Inhibition of human COR-L23 cell growth in a cell viability assay.

A4-Fuk = type: functional, cell-based; conditions: Homo sapiens;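 also: growth inhibition of A4-Fuk cells, read out by a cell viability assay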
Description: SANGER: Inhibition of human A4-Fuk cell growth in a cell viability assay.

MS-1 = type: functional, cell-based; conditions: Homo sapiens;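 also: growth inhibition of MS-1 cells, read out by cell viability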
Description: SANGER: Inhibition of human MS-1 cell growth in a cell viability assay.

RMG-I = type: functional, cell-based, Homo sapiens; conditions: Homo sapiens, RMG-I;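 also: growth inhibition of human RMG-I cells, read out with a cell viability assay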
Description: SANGER: Inhibition of human RMG-I cell growth in a cell viability assay.

D-502MG = type: functional, cell-based, Homo sapiens; conditions: Homo sapiens, D-502MG
Description: SANGER: Inhibition of human D-502MG cell growth in a cell viability assay.

RO82-W-1 = type: functional, cell-based, Homo sapiens; conditions: Homo sapiens, RO82-W-1;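 also: growth inhibition of human RO82-W-1 cells, measured with a cell viability assay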
Description: SANGER: Inhibition of human RO82-W-1 cell growth in a cell viability assay.

CaR-1 = type: functional, cell-based, Homo sapiens; conditions: Homo sapiens, CaR-1;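 also: growth inhibition of human CaR-1 cancer cells, read out with a cell viability assay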
Description: SANGER: Inhibition of human CaR-1 cell growth in a cell viability assay.

DMS-273 = type: functional, cell-based, Homo sapiens; conditions: Homo sapiens, DMS-273
Description: SANGER: Inhibition of human DMS-273 cell growth in a cell viability assay.

BCPAP = type: functional, cell-based, Homo sapiens; conditions: Homo sapiens, BCPAP;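 also: growth inhibition of BCPAP cells, read out in a cell viability assay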
Description: SANGER: Inhibition of human BCPAP cell growth in a cell viability assay.

BPH-1 = type: functional, cell-based, Homo sapiens; conditions: Homo sapiens, BPH-1;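 also: cell viability assay measuring growth inhibition of human BPH-1 cells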
Description: SANGER: Inhibition of human BPH-1 cell growth in a cell viability assay.

TE-11 = type: functional, cell-based, Homo sapiens; conditions: Homo sapiens, TE-11;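 also: growth inhibition of human TE-11 cells, read out by a cell viability assay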
Description: SANGER: Inhibition of human TE-11 cell growth in a cell viability assay.

FaDu = type: functional, cell-based, Homo sapiens; conditions: Homo sapiens, FaDu;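 also: cell viability readout of growth inhibition in FaDu cells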
Description: SANGER: Inhibition of human FADU cell growth in a cell viability assay.

EW-1 = type: functional, cell-based, Homo sapiens; conditions: Homo sapiens, EW-1;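 also: growth inhibition of the human EW-1 cell line, read out by a cell viability assay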
Description: SANGER: Inhibition of human EW-1 cell growth in a cell viability assay.

ME-180 = type: functional, cell-based; conditions: Homo sapiens;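 also: cell viability assay measuring growth inhibition of ME-180 cells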
Description: SANGER: Inhibition of human ME-180 cell growth in a cell viability assay.

SBC-1 = type: functional, cell-based; conditions: Homo sapiens;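 also: cell viability assay measuring growth inhibition of the SBC-1 cell line, IC50 being the concentration that halves growth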
Description: SANGER: Inhibition of human SBC-1 cell growth in a cell viability assay.

IST-MEL1 = type: functional, cell-based, Homo sapiens; conditions: Homo sapiens, IST-MEL1;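 also: growth inhibition of the cell line, read out with a cell viability assay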
Description: SANGER: Inhibition of human IST-MEL1 cell growth in a cell viability assay.

HCC1954 = type: functional, cell-based, Homo sapiens; conditions: Homo sapiens, HCC1954;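 also: growth inhibition of human HCC1954 cells, read out with a cell viability assay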
Description: SANGER: Inhibition of human HCC1954 cell growth in a cell viability assay.

What does the source list for Cc1ccc(Nc2nccc(N(C)c3ccc4c(C)n(C)nc4c3)n2)cc1S(N)(=O)=O [PAZOPANIB]?
IC50 (MMAC-SF): > 8 µM; IC50 (BHY): > 8 µM; IC50 (GCT): > 8 µM; IC50 (NCI-H2122): > 8 µM; IC50 (P12-Ichikawa): > 8 µM; IC50 (A101D): > 8 µM; IC50 (KOSC-2): > 8 µM; IC50 (RPMI-8866): > 8 µM; IC50 (KYSE-180): > 8 µM; IC50 (NUGC-3): > 8 µM; IC50 (SAOS-2): > 8 µM; IC50 (NCI-H1355): > 8 µM; IC50 (A498): > 8 µM; IC50 (UACC-62): > 8 µM; IC50 (GT3TKB): > 8 µM; IC50 (SAS): > 8 µM; IC50 (MDA-MB-453): > 8 µM; IC50 (NCI-H1304): > 8 µM; IC50 (VA-ES-BJ): > 8 µM; IC50 (SK-UT-1): > 8 µM; IC50 (M14): > 8 µM; IC50 (Huh-7): 7.69 µM; IC50 (SK-OV-3): > 8 µM; IC50 (CAKI-1): > 8 µM; IC50 (IST-SL1): > 8 µM; IC50 (OAW-28): > 8 µM; IC50 (MHH-ES-1): > 8 µM; IC50 (DEL): > 8 µM; IC50 (HCC1806): > 8 µM; IC50 (MFM-223): > 8 µM; IC50 (SW756): > 8 µM; IC50 (KALS-1): > 8 µM; IC50 (RS4-11): > 8 µM; IC50 (COR-L23): > 8 µM; IC50 (A4-Fuk): > 8 µM; IC50 (MS-1): > 8 µM; IC50 (RMG-I): > 8 µM; IC50 (D-502MG): 7.78 µM; IC50 (RO82-W-1): > 8 µM; IC50 (CaR-1): > 8 µM; IC50 (DMS-273): 4.96 µM; IC50 (BCPAP): > 8 µM; IC50 (BPH-1): > 8 µM; IC50 (TE-11): > 8 µM; IC50 (FaDu): > 8 µM; IC50 (EW-1): > 8 µM; IC50 (ME-180): > 8 µM; IC50 (SBC-1): > 8 µM; IC50 (IST-MEL1): > 8 µM; IC50 (HCC1954): > 8 µM

Which results are given for Cc1cnc(-c2cnc(NCCNc3ccc(C#N)cn3)nc2-c2ccc(Cl)cc2Cl)[nH]1 [LADUVIGLUSIB]?
IC50 (MMAC-SF): > 2.56 µM; IC50 (BHY): > 2.56 µM; IC50 (GCT): 0.307 µM; IC50 (NCI-H2122): 2.28 µM; IC50 (P12-Ichikawa): > 2.56 µM; IC50 (A101D): > 2.56 µM; IC50 (KOSC-2): > 2.56 µM; IC50 (RPMI-8866): > 2.56 µM; IC50 (KYSE-180): 1.73 µM; IC50 (NUGC-3): > 2.56 µM; IC50 (SAOS-2): > 2.56 µM; IC50 (NCI-H1355): > 2.56 µM; IC50 (A498): 1.3 µM; IC50 (UACC-62): > 2.56 µM; IC50 (GT3TKB): > 2.56 µM; IC50 (SAS): > 2.56 µM; IC50 (MDA-MB-453): > 2.56 µM; IC50 (NCI-H1304): > 2.56 µM; IC50 (VA-ES-BJ): > 2.56 µM; IC50 (SK-UT-1): > 2.56 µM; IC50 (M14): > 2.56 µM; IC50 (Huh-7): > 2.56 µM; IC50 (SK-OV-3): > 2.56 µM; IC50 (CAKI-1): > 2.56 µM; IC50 (IST-SL1): > 2.56 µM; IC50 (OAW-28): > 2.56 µM; IC50 (MHH-ES-1): > 2.56 µM; IC50 (DEL): > 2.56 µM; IC50 (HCC1806): > 2.56 µM; IC50 (MFM-223): > 2.56 µM; IC50 (SW756): > 2.56 µM; IC50 (KALS-1): > 2.56 µM; IC50 (RS4-11): 1.95 µM; IC50 (COR-L23): > 2.56 µM; IC50 (A4-Fuk): > 2.56 µM; IC50 (MS-1): > 2.56 µM; IC50 (RMG-I): > 2.56 µM; IC50 (D-502MG): > 2.56 µM; IC50 (RO82-W-1): > 2.56 µM; IC50 (CaR-1): > 2.56 µM; IC50 (DMS-273): > 2.56 µM; IC50 (BCPAP): 1.67 µM; IC50 (BPH-1): > 2.56 µM; IC50 (TE-11): > 2.56 µM; IC50 (FaDu): > 2.56 µM; IC50 (EW-1): > 2.56 µM; IC50 (ME-180): > 2.56 µM; IC50 (SBC-1): > 2.56 µM; IC50 (IST-MEL1): > 2.56 µM; IC50 (HCC1954): > 2.56 µM

How did the IC50 (MMAC-SF) turn out when COc1cc([C@@H]2c3cc4c(cc3[C@@H](O[C@@H]3O[C@@H]5CO[C@@H](C)O[C@H]5[C@H](O)[C@H]3O)[C@H]3COC(=O)[C@H]23)OCO4)cc(OC)c1O [ETOPOSIDE] was run?
The IC50 was 6.88 µM.

And the IC50 (BHY)?
Its IC50 is 1.53 µM.

And the IC50 (GCT)?
Its IC50 is 3.27 µM.

What about the IC50 (NCI-H2122) of the same compound?
The IC50 was 5.39 µM.

What about the IC50 (P12-Ichikawa) of the same compound?
Its IC50 is 0.317 µM.

What about the IC50 (A101D) of the same compound?
The IC50 was 1.2 µM.

And the IC50 (KOSC-2)?
Its IC50 is over 16 µM.

What about the IC50 (RPMI-8866) of the same compound?
Its IC50 is 4.65 µM.

And the IC50 (KYSE-180)?
The IC50 was 2.07 µM.

And the IC50 (NUGC-3)?
The IC50 was 0.981 µM.

What about the IC50 (SAOS-2) of the same compound?
The IC50 was over 16 µM.

What about the IC50 (NCI-H1355) of the same compound?
Its IC50 is 0.39 µM.

What about the IC50 (A498) of the same compound?
Its IC50 is over 16 µM.

And the IC50 (UACC-62)?
The IC50 was 2.92 µM.

What about the IC50 (GT3TKB) of the same compound?
The IC50 was 0.406 µM.

And the IC50 (SAS)?
Its IC50 is 1.27 µM.

And the IC50 (MDA-MB-453)?
Its IC50 is over 16 µM.

What about the IC50 (NCI-H1304) of the same compound?
The IC50 was 2.3 µM.

And the IC50 (VA-ES-BJ)?
Its IC50 is 0.415 µM.

What about the IC50 (SK-UT-1) of the same compound?
The IC50 was 0.0424 µM.

And the IC50 (M14)?
Its IC50 is 7.95 µM.

And the IC50 (Huh-7)?
Its IC50 is 2.56 µM.

What about the IC50 (SK-OV-3) of the same compound?
The IC50 was 10.8 µM.

What about the IC50 (CAKI-1) of the same compound?
The IC50 was 6.65 µM.

What about the IC50 (IST-SL1) of the same compound?
Its IC50 is over 16 µM.

And the IC50 (OAW-28)?
Its IC50 is 2.15 µM.

And the IC50 (MHH-ES-1)?
The IC50 was 0.463 µM.

And the IC50 (DEL)?
The IC50 was 0.311 µM.

What about the IC50 (HCC1806) of the same compound?
The IC50 was 4.73 µM.

What about the IC50 (MFM-223) of the same compound?
Its IC50 is over 16 µM.

And the IC50 (SW756)?
The IC50 was 2.98 µM.

What about the IC50 (KALS-1) of the same compound?
The IC50 was 10.3 µM.

And the IC50 (RS4-11)?
The IC50 was 0.196 µM.

What about the IC50 (COR-L23) of the same compound?
The IC50 was 6.18 µM.

What about the IC50 (A4-Fuk) of the same compound?
The IC50 was 0.841 µM.

And the IC50 (MS-1)?
The IC50 was 5.64 µM.

And the IC50 (RMG-I)?
Its IC50 is over 16 µM.

What about the IC50 (D-502MG) of the same compound?
The IC50 was over 16 µM.

What about the IC50 (RO82-W-1) of the same compound?
Its IC50 is over 16 µM.

And the IC50 (CaR-1)?
The IC50 was 8.6 µM.

And the IC50 (DMS-273)?
Its IC50 is 0.573 µM.

What about the IC50 (BCPAP) of the same compound?
The IC50 was 0.737 µM.

What about the IC50 (BPH-1) of the same compound?
The IC50 was 0.943 µM.

And the IC50 (TE-11)?
Its IC50 is 7.46 µM.

And the IC50 (FaDu)?
The IC50 was 1.28 µM.

What about the IC50 (EW-1) of the same compound?
Its IC50 is 1.46 µM.

What about the IC50 (ME-180) of the same compound?
The IC50 was 0.824 µM.

And the IC50 (SBC-1)?
Its IC50 is over 16 µM.

What about the IC50 (IST-MEL1) of the same compound?
Its IC50 is 3 µM.

What about the IC50 (HCC1954) of the same compound?
Its IC50 is 10 µM.
